Data published in patent US9120770B2, “Substituted pyridine and pyrazine compounds as PDE4 inhibitors” (DART NEUROSCIENCE (CAYMAN) LTD., priority 2013, dated 2015).

Target: PDE4D3 (Homo sapiens, UniProt Q08499)
Sequence (Q08499 1-673 isoform Q08499-2): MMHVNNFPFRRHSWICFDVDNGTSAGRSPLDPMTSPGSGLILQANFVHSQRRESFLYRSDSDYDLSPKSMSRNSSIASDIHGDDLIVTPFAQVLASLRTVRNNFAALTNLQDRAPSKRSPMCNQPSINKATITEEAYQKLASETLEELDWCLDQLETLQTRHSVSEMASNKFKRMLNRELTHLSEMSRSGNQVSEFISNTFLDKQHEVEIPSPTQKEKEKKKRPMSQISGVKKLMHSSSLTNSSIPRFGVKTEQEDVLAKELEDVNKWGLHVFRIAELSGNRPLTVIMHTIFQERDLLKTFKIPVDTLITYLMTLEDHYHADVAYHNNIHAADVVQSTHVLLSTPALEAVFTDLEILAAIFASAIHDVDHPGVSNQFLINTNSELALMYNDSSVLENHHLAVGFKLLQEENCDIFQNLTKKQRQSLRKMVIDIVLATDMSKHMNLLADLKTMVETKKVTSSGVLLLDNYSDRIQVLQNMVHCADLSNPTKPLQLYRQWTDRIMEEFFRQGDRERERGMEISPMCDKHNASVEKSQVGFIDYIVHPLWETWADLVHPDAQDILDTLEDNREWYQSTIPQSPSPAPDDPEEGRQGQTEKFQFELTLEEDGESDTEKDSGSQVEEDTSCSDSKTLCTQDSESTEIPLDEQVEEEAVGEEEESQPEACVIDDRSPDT

EC50	SMILES
100 to 1000 nM	Cc1cccc(-c2cc(Cn3cncn3)cnc2OC(F)F)c1 [Example 12, 2-(Difluoromethoxy)-3-(3-methylphenyl)-5-(1H-1,2,4-triazol-1-ylmethyl)pyridine]
< 100 nM	CCOc1ncc(Cn2cnc(C)n2)nc1-c1cccc(OC(F)F)c1 [Example 185, 3-[3-(Difluoromethoxy)phenyl]-2-ethoxy-5-[(3-methyl-1H-1,2,4-triazol-1-yl)methyl]pyrazine]
< 100 nM	COc1cccc(-c2cc(Cc3cnc(N)nc3)cnc2OC(F)F)c1 [Example 29, 5-{[6-(Difluoromethoxy)-5-(3-methoxyphenyl)pyridin-3-yl]methyl}pyrimidin-2-amine]
< 100 nM	COc1ncc(Cc2cncnc2)cc1-c1cccc(Cl)c1 [Example 78, 5-{[5-(3-Chlorophenyl)-6-methoxypyridin-3-yl]methyl}pyrimidine]
1000 to 10000 nM	COc1ncc(Cn2cnc(C3CC3)n2)nc1-c1cccc(Cl)c1 [Example 133, 3-(3-Chlorophenyl)-5-[(3-cyclopropyl-1H-1,2,4-triazol-1-yl)methyl]-2-methoxypyrazine]
> 10000 nM	COc1ncc(Cn2ncnc2C(C)(C)O)cc1-c1cccc(Cl)c1 [Example 249, 2-(1-{[5-(3-Chlorophenyl)-6-methoxypyridin-3-yl]methyl}-1H-1,2,4-triazol-5-yl)propan-2-ol]
< 100 nM	COc1cc(-c2cc(Cc3cnc(N)nc3)cnc2OC(F)F)ccn1 [Example 46, 5-{[6-(Difluoromethoxy)-5-(2-methoxypyridin-4-yl)pyridin-3-yl]methyl}pyrimidin-2-amine]
100 to 1000 nM	CN(C)c1ncn(Cc2cnc(OC(F)F)c(-c3cccc(Cl)c3)c2)n1 [Example 239, 1-{[5-(3-Chlorophenyl)-6-(difluoromethoxy)pyridin-3-yl]methyl}-N,N-dimethyl-1H-1,2,4-triazol-3-amine]
1000 to 10000 nM	COc1ncc(Cc2ccc(C(=O)NC3COC3)cc2)cc1-c1cccc(Cl)c1 [Example 243, 4-{[5-(3-Chlorophenyl)-6-methoxypyridin-3-yl]methyl}-N-(oxetan-3-yl)benzamide]
100 to 1000 nM	Nc1ccc(Cc2cnc(OC(F)F)c(-c3cccc(Cl)c3)c2)nn1 [Example 111, 6-{[5-(3-Chlorophenyl)-6-(difluoromethoxy)pyridin-3-yl]methyl}pyridazin-3-amine]
< 100 nM	COc1ncc(Cn2cnc(C)n2)cc1-c1cccc(OC(F)F)c1 [Example 155, 3-[3-(Difluoromethoxy)phenyl]-2-methoxy-5-[(3-methyl-1H-1,2,4-triazol-1-yl)methyl]pyridine]

The next lines start with the compound.

SMILES	EC50
COc1ncc(Cn2cc([N+](=O)[O-])cn2)cc1-c1cccc(Cl)c1 [Example 180, 3-(3-Chlorophenyl)-2-methoxy-5-[(4-nitro-1H-pyrazol-1-yl)methyl]pyridine]	100 to 1000 nM
OCc1cncn1Cc1cnc(OC(F)F)c(-c2cccc(Cl)c2)c1 [Example 273, (1-{[5-(3-Chlorophenyl)-6-(difluoromethoxy)pyridin-3-yl]methyl}-1H-imidazol-5-yl)methanol]	1000 to 10000 nM
COc1ncc(Cc2ccc(C(C)(C)O)nc2)cc1-c1cccc(Cl)c1 [Example 251, 2-(5-{[5-(3-Chlorophenyl)-6-methoxypyridin-3-yl]methyl}pyridin-2-yl)propan-2-ol]	100 to 1000 nM
COc1ncc(Cn2cc(C)cn2)nc1-c1cccc(Cl)c1 [Example 184, 3-(3-Chlorophenyl)-2-methoxy-5-[(4-methyl-1H-pyrazol-1-yl)methyl]pyrazine]	1000 to 10000 nM
Nc1ncc(Cc2cnc(OC(F)F)c(-c3cccc(Cl)c3)c2)cn1 [Example 89, 5-{[5-(3-Chlorophenyl)-6-(difluoromethoxy)pyridin-3-yl]methyl}pyrimidin-2-amine]	< 100 nM
CC(C)Oc1ncc(Cn2cncn2)cc1-c1cccc(Cl)c1 [Example 135, 3-(3-Chlorophenyl)-2-(propan-2-yloxy)-5-(1H-1,2,4-triazol-1-ylmethyl)pyridine]	1000 to 10000 nM
COc1ncc(Cn2cncn2)nc1-c1cccc(Cl)c1 [Example 130, 3-(3-Chlorophenyl)-2-methoxy-5-(1H-1,2,4-triazol-1-ylmethyl)pyrazine]	100 to 1000 nM
COc1ncc(Cn2cc(CO)nn2)nc1-c1cccc(Cl)c1 [Example 266, (1-{[6-(3-Chlorophenyl)-5-methoxypyrazin-2-yl]methyl}-1H-1,2,3-triazol-4-yl)methanol]	100 to 1000 nM
NC(=O)c1cncc(Cc2cnc(OC(F)F)c(-c3cccc(Cl)c3)c2)c1 [Example 70, 5-{[5-(3-Chlorophenyl)-6-(difluoromethoxy)pyridin-3-yl]methyl}pyridine-3-carboxamide]	1000 to 10000 nM
COc1ncc(Cn2cnc(CF)n2)cc1-c1ccnc(OC(F)F)c1 [Example 256, 3-[2-(Difluoromethoxy)pyridin-4-yl]-5-{[3-(fluoromethyl)-1H-1,2,4-triazol-1-yl]methyl}-2-methoxypyridine]	< 100 nM
CCOc1ncc(Cn2cnc(CO)n2)cc1-c1ccnc(OC(F)F)c1 [Example 206, [1-({5-[2-(Difluoromethoxy)pyridin-4-yl]-6-ethoxypyridin-3-yl}methyl)-1H-1,2,4-triazol-3-yl]methanol]	< 100 nM
CCOc1ncc(Cn2cnc(C(F)(F)F)n2)cc1-c1cccc(OC(F)F)c1 [Example 163, 3-[3-(Difluoromethoxy)phenyl]-2-ethoxy-5-{[3-(trifluoromethyl)-1H-1,2,4-triazol-1-yl]methyl}pyridine]	< 100 nM
COc1ncc(Cn2cnc(N)n2)cc1-c1cccc(C#N)c1 [Example 223, 3-{5-[(3-Amino-1H-1,2,4-triazol-1-yl)methyl]-2-methoxypyridin-3-yl}benzonitrile]	100 to 1000 nM
COc1ncc(Cn2cnc(C(F)(F)F)n2)cc1-c1cccc(OC(F)F)c1 [Example 159, 3-[3-(Difluoromethoxy)phenyl]-2-methoxy-5-{[3-(trifluoromethyl)-1H-1,2,4-triazol-1-yl]methyl}pyridine]	100 to 1000 nM
Cc1ncn(Cc2cnc(OC(F)F)c(-c3cccc(Cl)c3)c2)n1 [Example 148, 3-(3-Chlorophenyl)-2-(difluoromethoxy)-5-[(3-methyl-1H-1,2,4-triazol-1-yl)methyl]pyridine]	< 100 nM
COc1ncc(Cn2cnc(C)n2)nc1-c1cccc(Cl)c1 [Example 132, 3-(3-Chlorophenyl)-2-methoxy-5-[(3-methyl-1H-1,2,4-triazol-1-yl)methyl]pyrazine]	100 to 1000 nM
COc1ncn(Cc2cnc(OC)c(-c3cccc(Cl)c3)c2)n1 [Example 213, 3-(3-Chlorophenyl)-2-methoxy-5-[(3-methoxy-1H-1,2,4-triazol-1-yl)methyl]pyridine]	100 to 1000 nM
COc1ncc(Cc2cnn(C)c2)cc1-c1cccc(Cl)c1 [Example 79, 3-(3-Chlorophenyl)-2-methoxy-5-[(1-methyl-1H-pyrazol-4-yl)methyl]pyridine]	< 100 nM
